Legend:
T47D cells = test: Cellular growth inhibition assay for T47D cells, CellTiter-Glo; assay type: cell-based, human; settings: 72 hours treatment, CellTiter-Glo 2.0 cell viability
How it was run: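 Luminescence from CellTiter-Glo 2.0 after 72 h of compound exposure gives the viability signal. Cells grew in insulin-supplemented (0.2 units/mL) DMEM with 10% FBS and were treated one day after seeding at 0.5% DMSO. GI50 values come from four-parameter nonlinear regression.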

[1] = system: T-Rex 293 cell line SC3 cells lacking increased expression of androgen receptor protein; test: Cellular growth inhibition, T-Rex 293 SC3 cells without doxycycline, CellTiter-Glo; assay type: cell-based; settings: T-Rex 293 SC3 cells not exposed to doxycycline; 72 hours; CellTiter-Glo 2.0
How it was run: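 GI50 came from a four-parameter fit of CellTiter-Glo 2.0 luminescence after 72 h compound exposure (0.5% DMSO, 37 °C), dosing 24 h post-seeding. SC3 clone cells (2500/well), transfected with wild-type androgen receptor, grew in charcoal-stripped serum medium lacking phenol red, induced with 10 ng/mL doxycycline or left uninduced.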

Cc1sc2c(c1C)C(c1ccc(CC3CC4(CCN(c5ccc(C(=O)N[C@H]6C(C)(C)[C@H](Oc7ccc(C#N)c(Cl)c7)C6(C)C)cn5)CC4)C3)cc1)=N[C@@H](Cc1ncco1)c1nnc(C)n1-2 [Compound I-143]
GI50 (T47D cells): < 500 nM | GI50 [1]: < 500 nM

Cc1sc2c(c1C)C(c1ccc(N3CC(N4CCN(c5ncc(C(=O)N[C@H]6C(C)(C)[C@H](Oc7ccc(C#N)c(Cl)c7)C6(C)C)cn5)CC4)C3)cc1)=NC(Cc1ncco1)c1nnc(C)n1-2 (stereo partly shown) [Compound I-208]
GI50 (T47D cells; Homo sapiens, T47D, 72 h): < 500 nM | GI50 [1]: < 500 nM

Reference: patent US20260062422A1 (Halda Therapeutics OpCo, Inc., priority 2022, published 2026)
